Like-named read-outs stand apart in the source and are kept apart here.
What was measured:
[1] = tested on: Peripheral blood mononuclear cells co-cultured with B-cells (BT system); assay: cells; conditions: Homo sapiens, 72 h, read-out: % decrease in sIL-17
[2] = tested on: Bronchial epithelial cells co-cultured with dermal fibroblast (BF4T system); assay: BioMAP BF4T system (TNFα and IL-4); type: cell-based, human; conditions: Homo sapiens, 24 h; 1 uM; procedure of Example 830; read-out: % increase in VCAM-1
[3] = tested on: Peripheral blood mononuclear cells co-cultured with venular endothelial cells (HUVEC) (LPS system); assay: BioMAP LPS system; type: cell-based, human; conditions: 10 uM, procedure of Example 827
[4] = tested on: Bronchial epithelial cells (BE3C system); assay: BioMAP BE3C system (IL-1β, TNFα, IFNγ); type: cell-based, human; conditions: Homo sapiens, Epithelial cell, 24 h; 10 uM; procedure of Example 831; read-out: % decrease in MMP-1
HepG2 cells [5] = assay: Glucose uptake (Glucose Uptake-Glo); type: cell-based; conditions: Homo sapiens, 50 uM, read-out: % increase in Glucose Uptake
[6] = tested on: Dermal fibroblasts (HDF3CGF system); assay: BioMAP HDF3CGF system (IL-1β, TNFα, IFNγ, EGF, bFGF, PDGF-BB); type: cell-based, human; conditions: Homo sapiens, Fibroblast, 72 h; 1 uM; read-out: % increase in 72 Hour Proliferation
[7] = tested on: Methylmalonic Acidemia (MMA) primary fibroblasts GM01673; assay: Mitochondrial respiration, XFe96 Extracellular Flux Analyzer (OCR/ECAR), MMA fibroblasts GM01673; type: cell-based; conditions: Homo sapiens, Fibroblast, assay condition D (1 mM glucose, 10% FBS), 10 μM, read-out: Increase in Maximal Respiratory Capacity AUC
Protocol: The effect of the compounds of the present disclosure on mitochondrial respiration was measured with a XFe96 Extracellular Flux Analyzer (Seahorse Bioscience, Agilent Technologies) and Oxygen consumption Rate (OCR) and Extracellular acidification rate (ECAR) determined.
Cell culture and treatments. Primary adherent fibroblasts were cultured in minimum essential medium (MEM) (Gibco, 25030081) supplemented with 2 mM L-Glutamine (Gibco, 25030081), 15% fetal bovine serum (FBS) (Gibco, 26400044) and 1% penicillin/streptomycin (Gibco, 5140122) at 37° C. and 5% CO2. Cells were collected for either passaging or experiment at ˜70-80% confluence. Cells were obtained by trypsinization and seeded at 20000 cells/well in cell culture microplates (Seahorse Bioscience, 101085-004) and allowed to adhere for 16 hours in culture media.
By profiling different primary cells and/or optimizing their culture media or environmental components one can select cell lines and/or conditions that are appropriate for the biological or disease model. In the present example, 24 hours prior to OCR and ECAR profiling, media was changed to Dulbecco's Modified Eagle Medium (DMEM, Agilent Seahorse 103575-100) with the appropriate supplements for the different primary cells (10 mM glucose, 2 mM L-glutamine, 1 mM pyruvate, 10% FBS; 1 mM glucose, 2 mM L-glutamine, 1 mM pyruvate, 10% FBS; 10 mM glucose, 10% FBS; 5 mM glucose 10% FBS; 1 mM glucose 10% FBS). Cells used in this example were: Propionic Acidemia (PA) (GM00371, GM03590 Coriell Institute for Medical Research, Tsi 6337, Tsi 4626, Tsi 3618 Trans-Hit Bio), Methylmalonic Acidemia (MMA) (GM01673, Coriell Institute for Medical Research, Tsi 5224 Trans-Hit Bio), Branched chain ketoacid dehydrogenase kinase (BCKDK) (GM00612, GM00649 Coriell Institute for Medical Research), Subnormal activation of pyruvate dehydrogenase complex (PDH) (GM01503 Coriell Institute for Medical Research), Very long-chain acyl-CoA dehydrogenase (VLCAD) (GM17475), Leigh Syndrome (LS) (GM03672, GM13411 Coriell Institute for Medical Research), Pyruvate Carboxylase Deficiency (PC) (GM00444 Coriell Institute for Medical Research), Glutaric Acidemia-I (GA) (GM10653), Friedreich's Ataxia (FXN) (GM04078 Coriell Institute for Medical Research, Huntington's disease (HD) (GM21756 Coriell Institute for Medical Research), Ornithine Transcarbamylase Deficiency (OTC) (GM12756 Coriell Institute for Medical Research), Kearns-Sayre Syndrome (KSS) (GM06225 Coriell Institute for Medical Research).
One hour before the assay, the cells were washed with freshly prepared unbuffered serum free-Seahorse XF Assay medium (Seahorse Bioscience, North America, USA, 103575-100) with the same supplements as for the previous 24 hour incubation.
After baseline measurements of OCR, cells were challenged with compounds of the present disclosure at different concentrations (10 to 50 μM) or vehicle (DMSO, 0.1%) and a post-compound baseline was recorded. OCR was measured after sequentially adding to each well 1 μg/ml oligomycin (inhibitor of ATP synthase Sigma-Aldrich, 753531), then maximal OCR was determined with carbonyl cyanide 4-(trifluoromethoxy) phenylhydrazone (FCCP, Sigma-Aldrich, C2920), (uncoupler of oxidative phosphorylation) and 0.5 μM of rotenone (Sigma-Aldrich, R8875) plus antimycin A (Sigma-Aldrich, A8674) (inhibitors of mitochondrial complex I and III) for determination of rotenone-antimycin insensitive respiration together with Hoechst for nuclear staining in situ when normalized to cell counts. After the analysis and nuclear staining, the XFp microplate was transferred to the Cytation 5, and the nuclear images were captured, the individual nuclei were identified and counted by BioTek Gen5 software. Data were expressed as pmol of O2 per minute and normalized by nuclear staining and baselined to pre-compound addition.
Assay conditions were as stated below.
Assay specifics on assay conditions are indicated below when readouts were normalized to cell counts. […]

[8] = tested on: Keratinocytes co-cultured with dermal fibroblast (KF3CT system); assay: BioMAP KF3CT system (IL-1β, TNFα, IFNγ, TGFβ); type: cell-based, human; conditions: 1 uM
Protocol: The BioMAP platform (BioMAP® Diversity PLUS® Panel from Eurofins) is an in vitro phenotypic profiling technology that screened the compounds of the present disclosure (hereafter indicated as test agents) in human primary cell-based systems modelling complex tissue and disease states. The BioMAP assays were performed using the Eurofin's BioMAP Technology Platform as (see references 1 to 13 in the example 824 section) to model different diseases on primary cell-based model systems. These systems consisted of either single primary cell types or co-culture cells. Adherent cell types were cultured or co-cultured in 96 or 384-well plates until confluence followed by the addition of compounds prepared in DMSO at a final concentration of ≤0.1%. In each cell-based system, primary cells from heathy donors (2-6 donors) were pooled and treated with compounds at 1 and 10 μM dose 1h prior to stimulation and remain in culture as indicated in Example 825, Example 826, Example 827, Example 828, Example 829, Example 830, Example 831, Example 832, Example 833, Example 834, Example 835, Example 836 and Example 837. For on the BioMAP® Diversity PLUS® Panel, please see the following references, which are incorporate herein.
Following the general procedure as described in Example 824, Keratinocytes were co-cultured with dermal fibroblast (KF3CT system) and treated with IL-1β, TNFα, IFNγ and TGFβ for 24h in the presence or absence of the compounds to model psoriasis, dermatitis and skin biology. Biomarkers read out were; MCP-1, ICAM-1, IP-10, IL-8, MIG, IL-1α, MMP-9, PAI-1, SRB, TIMP-2, uPA.

[9] = tested on: Coronary artery smooth muscle cells (CASM3C system); assay: BioMAP CASM3C system (IL-1β, TNFα, IFNγ); type: cell-based, human
[10] = tested on: Propionic Acidemia (PA) primary fibroblasts GM00371; assay: Mitochondrial respiration, XFe96 Extracellular Flux Analyzer (OCR/ECAR), PA fibroblasts GM00371; type: cell-based; conditions: Homo sapiens, Fibroblast, assay condition C (10 mM glucose, 10% FBS), 50 μM, read-out: Increase in Maximal Respiratory Capacity AUC
HepG2 cells [11] = assay: Mitochondrial membrane potential (MITO-ID MP detection Kit); type: cell-based; conditions: Homo sapiens, 168 h, 7 days, read-out: % decrease in Mitochondrial Membrane Potential
Outline: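 Cells plated at 160000 cells/mL in DMEM with 10% FBS and 1% Pen-Strep, adhered overnight at 37° C., 5% CO2. Exposure to test compounds (50-10 μM) or 0.2% DMSO for 7 days without media change; membrane potential measured with MITO-ID MP detection kit per manufacturer.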

HepG2 cells [12] = assay: MitoBiogenesis In-Cell ELISA (COX-I, SDH-A); type: cell-based; conditions: Homo sapiens, 168 h, 10 uM, 7 days, read-out: % increase in Mitochondrial Biogenesis
Text: We determined the effect of compounds of the present disclosure on the levels of two mitochondrial proteins using MitoBiogenesis™ In-Cell ELISA Kit (Abcam ab110216) according to manufacturer's instructions. The two proteins are each subunits of a different oxidative phosphorylation enzyme complex, one protein being subunit I of Complex IV (COX-1), which is mitochondrial (mt)DNA-encoded, and the other being the 70 kDa subunit of Complex II (SDH-A), which is nuclear (n)DNA-encoded. Complex IV includes several proteins which are encoded in the mitochondrion, while the proteins of Complex II are entirely encoded in the nucleus. HepG2 cells (ATCC, HB-8065) were cultured (5% CO2 at 37° C.) and plated in Poly-D-Lysine 384-Well plate (Corning, 356663) at a density of 40,000 cells/mL in 50 μL. Culture and assay media consisted of DMEM (Gibco, 11995-065) supplemented with 1% Penicillin-Streptomycin and 10% FBS (Hyclone, SV30087.03). Cells were allowed to settle for 30 min at room temperature and further incubated overnight (37° C. and 5% CO2) for adherence. Next day, 50-5 μM of the negative control Chloramphenicol (Selleck, S1677), test compounds (50-10 μM) and vehicle DMSO (0.2%) were added at the recommended volumes to the 384-well plate for 7 days without media change using a Tecan compound dispenser. All the solutions and wash buffers were prepared and dispensed according to manufacturer's volumes for a 384-well plate format. Effects of compounds on mtDNA-encoded protein expression (COX-I) and nuclear DNA-encoded mitochondrial protein expression (SDH-A) were expressed as relative signal (nm) to vehicle of a n=2 per conditions.

[13] = tested on: primary fibroblasts (healthy controls and PA, MMA, BCKDK, PDH, VLCAD, LS, PC, GA, VLCFA, KSS, FXN, HD); assay: Measurement of ROS (H2DCFDA) in primary fibroblasts; type: cell-based, human; conditions: Homo sapiens, Fibroblast, BCKD GM00649, procedure Example 812, Assay Condition C
Outline: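 Patient and healthy-control primary fibroblasts switched to supplemented DMEM 24 h before assay, then treated with compound (10 μM) plus H2DCFDA (22 μM) for 2 h (PA, MMA lines) or 24 h (other lines). Kinetic fluorescence at 492/527 nm over 60 min; only live cells analysed.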

CC(C)(CO)[C@@H](O)C(=O)NCCC(=O)NCCSC(CC(=O)O)C(=O)OCC[N+](C)(C)C (stereo partly drawn) [Compound 57, 3-(2-{3-[(R)-2,4-dihydroxy-3,3-dimethylbutyrylamino]propionylamino}ethylthio)-3-(2-trimethylazaniumethoxycarbonyl)propionic acid]
inhibition at 10 µM [1]: ≥ 20% | activation at 1 µM [2]: ≥ 10% | % increase in sPGE2 [3]: ≥10% | inhibition at 10 µM ([3]; Homo sapiens, HUVEC, 24 h, read-out: % decrease in TissueFactor): ≥ 10% | activation at 10 µM ([3]; Homo sapiens, HUVEC, 24 h, read-out: % increase in sTNFα): ≥ 20% | inhibition at 10 µM [4]: ≥ 10% | activation at 50 µM (HepG2 cells [5]): ≥ 20% | activation at 1 µM [6]: ≥ 10% | activation at 10 µM [7]: ≥ 10% | % decrease in PAI-I [8]: ≥10% | % decrease in MCP-1 ([8]; procedure of 834): ≥10% | % decrease in Tissue Factor ([9]; 1 uM): ≥10% | % decrease in Proliferation ([9]; 1 uM, procedure of Example 832): ≥10% | % decrease in CXCL9 ([9]; 10 uM): ≥10% | % decrease in HLA-DR ([9]; 10 uM): ≥10% | inhibition at 10 µM ([9]; Homo sapiens, 24 h, 10 uM, read-out: % decrease in Thrombomodulin): ≥ 20% | activation at 50 µM [10]: ≥ 10%

COC(=O)CCC(=O)SCCNC(=O)CCNC(=O)[C@H](O)C(C)(C)COP(=O)(O)O [Compound 62, Methyl (R)-4-((2-(3-(2-hydroxy-3,3-dimethyl-4-(phosphonooxy)butanamido)propanamido)ethyl)thio)-4-oxobutanoate]
inhibition at 50 µM (HepG2 cells [11]; 50 uM): > 50% | activation at 10 µM (HepG2 cells [12]): > 5%

CSCCNC(=O)CCNC(=O)[C@H](O)C(C)(C)CO [Compound 1250, (R)-2,4-dihydroxy-3,3-dimethyl-N-(3-((2-(methylthio)ethyl)amino)-3-oxopropyl)butanamide]
inhibition at 10 µM (HepG2 cells [11]): > 50% | activation at 10 µM (HepG2 cells [12]): > 5%

COC(=O)C[C@H](N)C(=O)SCCNC(=O)CCNC(=O)[C@H](O)C(C)(C)CO [Compound 414]
inhibition at 10 µM (HepG2 cells [11]): > 20% | inhibition at 10 µM ([13]; read-out: Decreased ROS by at least 10%): ≥ 10% | inhibition at 10 µM ([13]; read-out: Decreased ROS by at least 30%): ≥ 30% | activation at 10 µM (HepG2 cells [12]): 10%

Source: patent US20230107216A1, “PANTETHEINE DERIVATIVES AND USES THEREOF” (Comet Therapeutics, Inc., priority 2018, published 2023)
